Biological target: T1, Proteus mirabilis lipase (PML) (Proteus mirabilis, UniProt B4EVM3)
T1 construct: gene PMI0999; N-terminal hexahistidine tag (pET28a, plasmid pTK05), expressed in E. coli BL21Gold(DE3), Ni-NTA purified, tag removal not described
Assay: X-ray crystal structure, […] A
Format: binding
Details: covalent; diethyl adduct on Ser79 O-gamma; treated with 2 mM paraoxon, 0.6% Triton X100, 18 h, 25 °C, pH 7.5

T1 sequence (B4EVM3 entry or part of it): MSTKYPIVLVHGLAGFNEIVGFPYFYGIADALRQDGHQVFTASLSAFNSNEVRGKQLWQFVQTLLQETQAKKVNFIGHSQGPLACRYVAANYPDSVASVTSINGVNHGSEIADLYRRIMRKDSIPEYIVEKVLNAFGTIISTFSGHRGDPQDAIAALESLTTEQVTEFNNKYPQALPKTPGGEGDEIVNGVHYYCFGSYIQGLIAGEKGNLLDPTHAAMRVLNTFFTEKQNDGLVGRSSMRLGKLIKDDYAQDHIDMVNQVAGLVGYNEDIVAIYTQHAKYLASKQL

## CCOP(=O)(OCC)Oc1ccc([N+](=O)[O-])cc1 [DEP, paraoxon]
  X-ray crystal structure, 2.2 A: the small phosphonate inhibitor is covalently bound to the Oγ of S79

From PMC3530535, “Crystal Structure of Proteus mirabilis Lipase, a Novel Lipase from the Proteus/Psychrophilic Subfamily of Lipase Family I.1” (PLoS ONE, 2012)
